What all share (format): biochemical
One test has as its target T1, mouse PTPS (mPTPS) (Mus musculus, UniProt Q9R1Z7).
T1 sequence (Q9R1Z7 1-144): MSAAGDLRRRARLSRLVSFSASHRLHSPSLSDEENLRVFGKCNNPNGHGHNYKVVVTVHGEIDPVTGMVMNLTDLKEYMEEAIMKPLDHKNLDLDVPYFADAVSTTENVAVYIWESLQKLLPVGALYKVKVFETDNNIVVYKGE
The test is described as follows: HPLC of product, UV-visible spectra. The settings on record: anaerobic; H2NTP generated in situ from GTP by FolE; control reaction.

A further test concerns the target E. coli GCH I (FolE) (Escherichia coli, UniProt P0A6T5). The test is described as follows: HPLC of product. As to conditions: anaerobic.
A further test has as its target T2, E. coli QueD (Escherichia coli, UniProt P65870).
T2 sequence (P65870 1-121): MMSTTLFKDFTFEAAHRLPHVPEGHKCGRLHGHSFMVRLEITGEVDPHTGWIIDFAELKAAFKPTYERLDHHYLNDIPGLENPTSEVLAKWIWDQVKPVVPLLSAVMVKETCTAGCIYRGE
The experiment in a line: HPLC of product, UV-visible spectra. The settings on record: anaerobic (95% N2:5% H2).

Chain of E. coli GCH I (FolE) (P0A6T5 2-222): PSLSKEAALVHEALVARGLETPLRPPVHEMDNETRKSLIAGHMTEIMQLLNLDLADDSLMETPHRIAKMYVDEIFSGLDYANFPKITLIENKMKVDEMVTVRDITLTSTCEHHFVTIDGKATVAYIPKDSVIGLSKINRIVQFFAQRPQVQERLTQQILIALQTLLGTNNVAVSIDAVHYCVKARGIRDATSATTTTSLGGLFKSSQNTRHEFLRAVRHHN

For the compound `Nc1nc2c(c(=O)[nH]1)N=C([C@H](O)[C@H](O)COP(=O)(O)OP(=O)(O)OP(=O)(O)O)CN2` [H2NTP], the “HPLC of product, UV-visible spectra” value on mouse PTPS (mPTPS) is reported as “H2NTP was quantitatively converted to PPH4”.
Regarding `Nc1nc2c(ncn2[C@@H]2O[C@H](COP(=O)(O)OP(=O)(O)OP(=O)(O)O)[C@@H](O)[C@H]2O)c(=O)[nH]1` [GTP], the HPLC of product result at E. coli GCH I (FolE) is “H2NTP could be produced quantitatively from GTP”.
In the case of `C[C@H](O)C(=O)C1=Nc2c(nc(N)[nH]c2=O)NC1` [sepiapterin], at E. coli QueD, the “HPLC of product, UV-visible spectra” value was “the same product forms when sepiapterin is the substrate for QueD”.

Source of the values: paper PMC3227869 (Biochemistry, 2009).
